The record followed here is the NIST ThermoML archive (doi:10.1007/s10765-011-0995-x).

Numbers after ± are expanded uncertainties.

The first data set in a line: refractive index (Na D-line) (dimensionless); xn = mol fraction of the nth substance listed. To be noted: 298.15 K; 101 kPa; Liquid; Standard Abbe refractometry; x2 = 0.
In general, refractive index refers to a measure of how strongly the sample bends light. Take `CCCCCCCCCCO` [decan-1-ol] + Cc1ccc(Cl)cc1: the refractive index amounted to 1.4346 ± 0.0005.

Take `CCCCCCCCCCO` [decan-1-ol] + Cc1cccc(Cl)c1: the refractive index is 1.4346 ± 0.0005.

Consider `CCCCCCCCCCO` [decan-1-ol] + Cc1ccccc1Cl, for which the refractive index is 1.4346 ± 0.0005.

The data set is the same for the next values; noted with them: 303.15 K; 101 kPa; Liquid; Standard Abbe refractometry; x2 = 0.
Regarding `CCCCCCCCCCO` [decan-1-ol] + Cc1ccc(Cl)cc1, the refractive index is given as 1.4326 ± 0.0005.

For the compound `CCCCCCCCCCO` [decan-1-ol] + Cc1cccc(Cl)c1, the refractive index stood at 1.4326 ± 0.0005.

For the compound `CCCCCCCCCCO` [decan-1-ol] + Cc1ccccc1Cl, the refractive index turned out to be 1.4326 ± 0.0005.

Still in this data set, the particulars now being: 308.15 K; 101 kPa; Liquid; Standard Abbe refractometry; x2 = 0.
Turning to `CCCCCCCCCCO` [decan-1-ol] + Cc1ccc(Cl)cc1, the refractive index is 1.4305 ± 0.0005.

As to `CCCCCCCCCCO` [decan-1-ol] + Cc1cccc(Cl)c1, the refractive index is on record as 1.4305 ± 0.0005.

Turning to `CCCCCCCCCCO` [decan-1-ol] + Cc1ccccc1Cl, the refractive index turned out to be 1.4305 ± 0.0005.

Another data set can be described thus: refractive index (Na D-line) (dimensionless). To be noted: 298.15 K; 101.33 kPa; Liquid; Standard Abbe refractometry.
Consider `Cc1ccccc1Cl` [2-chlorotoluene], for which the refractive index stood at 1.5219 ± 0.0005.

In the case of `Cc1cccc(Cl)c1` [3-chlorotoluene], the refractive index is reported as 1.5207 ± 0.0005.

Regarding `Cc1ccc(Cl)cc1` [4-chlorotoluene], the refractive index stood at 1.5188 ± 0.0005.

Turning to `CCCCCCCCCCO` [decan-1-ol], the refractive index stood at 1.4346 ± 0.0005.

Still in this data set, the particulars now being: 303.15 K; 101.33 kPa; Liquid; Standard Abbe refractometry.
With `Cc1ccccc1Cl` [2-chlorotoluene], the refractive index is 1.5189 ± 0.0005.

As to `Cc1cccc(Cl)c1` [3-chlorotoluene], the refractive index came out at 1.5189 ± 0.0005.

Regarding `Cc1ccc(Cl)cc1` [4-chlorotoluene], the refractive index is given as 1.5166 ± 0.0005.

In the case of `CCCCCCCCCCO` [decan-1-ol], the refractive index is given as 1.4326 ± 0.0005.

The same data set, now with this note: 308.15 K; 101.33 kPa; Liquid; Standard Abbe refractometry.
On to `Cc1ccccc1Cl` [2-chlorotoluene], for which the refractive index amounted to 1.5169 ± 0.0005.

Turning to `Cc1cccc(Cl)c1` [3-chlorotoluene], the refractive index stood at 1.5169 ± 0.0005.

Turning to `Cc1ccc(Cl)cc1` [4-chlorotoluene], the refractive index worked out at 1.5138 ± 0.0005.

As to `CCCCCCCCCCO` [decan-1-ol], the refractive index was found to be 1.4305 ± 0.0005.

The nature of the next data set: xn = mol fraction of the nth substance listed. To be noted: 298.15 K; 101 kPa; Liquid; Pulse-echo method; x2 = 0.
By speed of sound is commonly meant the propagation velocity of pressure waves in the medium. For the compound `CCCCCCCCCCO` [decan-1-ol] + Cc1ccc(Cl)cc1, the speed of sound stood at 1380.1 ± 1.3 m/s.

Regarding `CCCCCCCCCCO` [decan-1-ol] + Cc1cccc(Cl)c1, the speed of sound amounted to 1380.1 ± 1.3 m/s.

For the compound `CCCCCCCCCCO` [decan-1-ol] + Cc1ccccc1Cl, the speed of sound is on record as 1380.1 ± 1.3 m/s.

The same data set, now with this note: 298.15 K; 101 kPa; Liquid; x2 = 0.
The mass density is the mass of a sample divided by its volume. For orientation: viscosity means the resistance of a fluid to flow. On to `CCCCCCCCCCO` [decan-1-ol] + Cc1ccc(Cl)cc1, for which the mass density stood at 826.41 ± 0.43 kg/m3 and the viscosity was 11.82 ± 0.11 mPa·s.

Regarding `CCCCCCCCCCO` [decan-1-ol] + Cc1cccc(Cl)c1, the mass density is 826.41 ± 0.43 kg/m3 and the viscosity is 11.82 ± 0.11 mPa·s.

Regarding `CCCCCCCCCCO` [decan-1-ol] + Cc1ccccc1Cl, the mass density worked out at 826.41 ± 0.43 kg/m3 and the viscosity stood at 11.82 ± 0.11 mPa·s.

The same data set, now with this note: 303.15 K; 101 kPa; Liquid; Pulse-echo method; x2 = 0.
With `CCCCCCCCCCO` [decan-1-ol] + Cc1ccc(Cl)cc1, the speed of sound was determined as 1364.9 ± 1.3 m/s.

On to `CCCCCCCCCCO` [decan-1-ol] + Cc1cccc(Cl)c1, for which the speed of sound is listed as 1364.9 ± 1.3 m/s.

`CCCCCCCCCCO` [decan-1-ol] + Cc1ccccc1Cl: the speed of sound is 1364.9 ± 1.3 m/s.

The data set is the same for the next values; noted with them: 303.15 K; 101 kPa; Liquid; x2 = 0.
For `CCCCCCCCCCO` [decan-1-ol] + Cc1ccc(Cl)cc1, the mass density stood at 822.92 ± 0.44 kg/m3 and the viscosity was found to be 9.766 ± 0.095 mPa·s.

`CCCCCCCCCCO` [decan-1-ol] + Cc1cccc(Cl)c1: the mass density was determined as 822.92 ± 0.44 kg/m3 and the viscosity came out at 9.766 ± 0.095 mPa·s.

For the compound `CCCCCCCCCCO` [decan-1-ol] + Cc1ccccc1Cl, the mass density is given as 822.92 ± 0.44 kg/m3 and the viscosity was 9.766 ± 0.095 mPa·s.

The data set is the same for the next values; noted with them: 308.15 K; 101 kPa; Liquid; Pulse-echo method; x2 = 0.
For `CCCCCCCCCCO` [decan-1-ol] + Cc1ccc(Cl)cc1, the speed of sound was 1346 ± 1.3 m/s.

As to `CCCCCCCCCCO` [decan-1-ol] + Cc1cccc(Cl)c1, the speed of sound was found to be 1346 ± 1.3 m/s.

Turning to `CCCCCCCCCCO` [decan-1-ol] + Cc1ccccc1Cl, the speed of sound is recorded as 1346 ± 1.3 m/s.

The data set is the same for the next values; noted with them: 308.15 K; 101 kPa; Liquid; x2 = 0.
Take `CCCCCCCCCCO` [decan-1-ol] + Cc1ccc(Cl)cc1: the mass density came to 819.42 ± 0.44 kg/m3 and the viscosity is on record as 8.13 ± 0.081 mPa·s.

In the case of `CCCCCCCCCCO` [decan-1-ol] + Cc1cccc(Cl)c1, the mass density is 819.42 ± 0.44 kg/m3 and the viscosity came to 8.13 ± 0.081 mPa·s.

`CCCCCCCCCCO` [decan-1-ol] + Cc1ccccc1Cl: the mass density is reported as 819.42 ± 0.44 kg/m3 and the viscosity is given as 8.13 ± 0.081 mPa·s.

Assay in a further data set: not given
To be noted: 298.15 K; 101 kPa; Liquid.
As for `Cc1ccccc1Cl` [2-chlorotoluene], the mass density amounted to 1077.41 ± 0.3 kg/m3 and the viscosity was 0.943 ± 0.013 mPa·s.

Regarding `Cc1cccc(Cl)c1` [3-chlorotoluene], the mass density stood at 1067.29 ± 0.29 kg/m3 and the viscosity was found to be 0.798 ± 0.011 mPa·s.

Turning to `Cc1ccc(Cl)cc1` [4-chlorotoluene], the mass density is 1065.11 ± 0.27 kg/m3 and the viscosity is 0.828 ± 0.011 mPa·s.

As to `CCCCCCCCCCO` [decan-1-ol], the mass density is 826.41 ± 0.43 kg/m3 and the viscosity stood at 11.82 ± 0.11 mPa·s.

Still in this data set, the particulars now being: 298.15 K; 101 kPa; Liquid; Pulse-echo method.
In the case of `Cc1ccccc1Cl` [2-chlorotoluene], the speed of sound was 1301.2 ± 1.3 m/s.

Turning to `Cc1cccc(Cl)c1` [3-chlorotoluene], the speed of sound was found to be 1298.3 ± 1.3 m/s.

Regarding `Cc1ccc(Cl)cc1` [4-chlorotoluene], the speed of sound turned out to be 1289.1 ± 1.2 m/s.

Turning to `CCCCCCCCCCO` [decan-1-ol], the speed of sound is given as 1380.1 ± 1.3 m/s.

Staying with this data set, now noted: 303.15 K; 101 kPa; Liquid.
As to `Cc1ccccc1Cl` [2-chlorotoluene], the mass density turned out to be 1072.83 ± 0.3 kg/m3 and the viscosity came out at 0.885 ± 0.012 mPa·s.

Consider `Cc1cccc(Cl)c1` [3-chlorotoluene], for which the mass density is on record as 1062.81 ± 0.28 kg/m3 and the viscosity is reported as 0.746 ± 0.011 mPa·s.

For `Cc1ccc(Cl)cc1` [4-chlorotoluene], the mass density is 1059.51 ± 0.26 kg/m3 and the viscosity came to 0.784 ± 0.011 mPa·s.

Regarding `CCCCCCCCCCO` [decan-1-ol], the mass density came to 822.92 ± 0.44 kg/m3 and the viscosity worked out at 9.766 ± 0.095 mPa·s.

Still in this data set, the particulars now being: 303.15 K; 101 kPa; Liquid; Pulse-echo method.
`Cc1ccccc1Cl` [2-chlorotoluene]: the speed of sound was determined as 1284.1 ± 1.3 m/s.

As to `Cc1cccc(Cl)c1` [3-chlorotoluene], the speed of sound is 1280.1 ± 1.3 m/s.

For the compound `Cc1ccc(Cl)cc1` [4-chlorotoluene], the speed of sound is reported as 1271 ± 1.2 m/s.

As to `CCCCCCCCCCO` [decan-1-ol], the speed of sound is 1364.9 ± 1.3 m/s.

Still in this data set, the particulars now being: 308.15 K; 101 kPa; Liquid.
Turning to `Cc1ccccc1Cl` [2-chlorotoluene], the mass density came to 1068.24 ± 0.29 kg/m3 and the viscosity stood at 0.805 ± 0.011 mPa·s.

As for `Cc1cccc(Cl)c1` [3-chlorotoluene], the mass density is recorded as 1058.33 ± 0.27 kg/m3 and the viscosity was 0.705 ± 0.01 mPa·s.

Take `Cc1ccc(Cl)cc1` [4-chlorotoluene]: the mass density came to 1053.9 ± 0.25 kg/m3 and the viscosity came out at 0.73 ± 0.011 mPa·s.

Regarding `CCCCCCCCCCO` [decan-1-ol], the mass density is 819.42 ± 0.44 kg/m3 and the viscosity is recorded as 8.13 ± 0.081 mPa·s.

The data set is the same for the next values; noted with them: 308.15 K; 101 kPa; Liquid; Pulse-echo method.
In the case of `Cc1ccccc1Cl` [2-chlorotoluene], the speed of sound is 1266.1 ± 1.3 m/s.

`Cc1cccc(Cl)c1` [3-chlorotoluene]: the speed of sound worked out at 1262.1 ± 1.3 m/s.

On to `Cc1ccc(Cl)cc1` [4-chlorotoluene], for which the speed of sound is listed as 1253.1 ± 1.2 m/s.

For the compound `CCCCCCCCCCO` [decan-1-ol], the speed of sound is 1346 ± 1.3 m/s.
